Assay results published in ChEMBL document CHEMBL4673202, “Design of Potent and Druglike Nonphenolic Inhibitors for Catechol O-Methyltransferase Derived from a Fragment Screening Approach Targeting the S-Adenosyl-l-methionine Pocket” (J Med Chem, 2016).
≈ marks a conversion by molar mass, not a printed value.

Tests used:
[1] = target: T1, Catechol O-methyltransferase (Homo sapiens, UniProt P21964); assay: Inhibition of recombinant wild-type human COMT expressed in Escherichia coli BL21 using 4-nitrocatechol-Alexa488 as substrate in presence of cofactor SAM preincubated for 1 min followed by substrate addition and measured every 60 sec up to 180 times by fluorescence based microtiter plate reader analysis
T1 sequence (P21964 whole entry): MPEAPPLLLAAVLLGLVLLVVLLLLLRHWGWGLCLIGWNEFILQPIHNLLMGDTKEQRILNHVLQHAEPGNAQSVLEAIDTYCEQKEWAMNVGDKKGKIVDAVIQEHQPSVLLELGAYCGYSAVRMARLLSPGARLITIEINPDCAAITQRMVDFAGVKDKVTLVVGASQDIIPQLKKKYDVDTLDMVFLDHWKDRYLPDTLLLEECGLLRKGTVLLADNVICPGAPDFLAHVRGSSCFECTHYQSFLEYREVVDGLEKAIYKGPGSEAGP

[2] = Solubility of compound; assay type: physicochemical
[3] = Distribution coefficient, log D of compound in octanol and water at pH 7.4; assay type: physicochemical

IC50 [1]	solubility [2]	logD [3]	Compound
1000 nM	2 µg/mL (≈ 6.68 µM)	3.7	COc1ccc(Cc2cc(-c3sc(C)nc3C)n[nH]2)cc1
20000 nM		2.6	CCc1cc(-c2sc(C)nc2C)n[nH]1
860 nM	5 µg/mL (≈ 16 µM)	3.9	COc1ccc([C@H](C)c2cc(-c3sc(C)nc3C)n[nH]2)cc1
21000 nM	24 µg/mL (≈ 80.7 µM)	4.3	CCC(c1ccccc1)c1cc(-c2sc(C)nc2C)n[nH]1 (stereo not given)
130000 nM			Cc1nc(C)c(-c2cc(-c3ccccc3)[nH]n2)s1
700 nM	5 µg/mL (≈ 17.6 µM)	4	Cc1nc(C)c(-c2cc([C@H](C)c3ccccc3)[nH]n2)s1
1100 nM			Cc1nc(C)c(-c2cc([C@@H](C)c3ccccc3)[nH]n2)s1
75 nM	2 µg/mL (≈ 6.15 µM)	4.1	COc1ccc(C2(c3cc(-c4sc(C)nc4C)n[nH]3)CC2)cc1
900 nM	3 µg/mL (≈ 10.6 µM)	3.9	Cc1nc(C)c(-c2cc(C(C)c3ccccc3)[nH]n2)s1 (stereo not given)
1100 nM	4 µg/mL (≈ 13.4 µM)	4.1	Cc1nc(C)c(-c2cc(C(C)(C)c3ccccc3)[nH]n2)s1
470 nM	5 µg/mL (≈ 16 µM)	4	COc1ccc([C@@H](C)c2cc(-c3sc(C)nc3C)n[nH]2)cc1

Second part, the molecule before the results:

Compound	IC50 [1]	solubility [2]	logD [3]
Cc1nc(-c2ccccc2)sc1-c1cc[nH]n1	24000 nM		
c1ccc(-c2ncc(-c3cc[nH]n3)s2)cc1	> 625000 nM		
Cc1nc(C2CC2)c(-c2cc[nH]n2)s1	> 625000 nM		
CCc1nc(C)c(-c2cc[nH]n2)s1	21000 nM		
Cc1nc(C)c(-c2cc(Cc3ccccc3)[nH]n2)s1	2000 nM	15 µg/mL (≈ 55.7 µM)	3.6
Cc1nc(Cc2ccccc2)sc1-c1cc[nH]n1	> 425000 nM		
Cc1ccc(-c2nc(C)c(-c3cc[nH]n3)s2)cc1	11000 nM		
Cc1nc(C)c(-c2cc(C3(c4ccccc4)CC3)[nH]n2)s1	210 nM	1 µg/mL (≈ 3.39 µM)	4.2
Cc1nc(C)c(-c2cc(Cc3ccc(-c4cnn(C)c4)cc3)[nH]n2)s1	1300 nM	4 µg/mL (≈ 11.4 µM)	3.9
Cc1nc(C)c(-c2cc(Cc3ccc(-c4ccccc4)cc3)[nH]n2)s1	3200 nM		
Cc1nc(C)c(-c2cc(CCc3ccccc3)[nH]n2)s1	8000 nM	4 µg/mL (≈ 14.1 µM)	4
Cc1nc(C)c(-c2cc(CCCc3ccccc3)[nH]n2)s1	34000 nM	8 µg/mL (≈ 26.9 µM)	4.4
